Experiments:
Type in all cases: functional
[1] = Growth inhibition of human MCF7 cells at 10 uM after 72 hrs by MTT assay; details: MCF7, 72 h, read-out: GI
[2] = Growth inhibition of human MCF7 cells at 30 uM after 72 hrs by MTT assay; details: MCF7, 72 h, read-out: GI
[3] = Growth inhibition of human T47D cells at 10 uM after 72 hrs by MTT assay; details: read-out: GI
[4] = Growth inhibition of human T47D cells at 30 uM after 72 hrs by MTT assay; details: read-out: GI
[5] = Growth inhibition of human MDA-MB-231 cells at 10 uM after 72 hrs by MTT assay; details: MDA-MB-231, 72 h, read-out: GI
[6] = Growth inhibition of human MDA-MB-231 cells at 30 uM after 72 hrs by MTT assay; details: MDA-MB-231, 72 h, read-out: GI
[7] = Growth inhibition of human MDA-MB-361 cells at 10 uM after 72 hrs by MTT assay; details: MDA-MB-361, 72 h, read-out: GI
[8] = Growth inhibition of human MDA-MB-361 cells at 30 uM after 72 hrs by MTT assay; details: MDA-MB-361, 72 h, read-out: GI

Compound | inhibition of growth at 10 µM [1] [%] | inhibition of growth at 30 µM [2] [%] | inhibition of growth at 10 µM [3] [%] | inhibition of growth at 30 µM [4] [%] | inhibition of growth at 10 µM [5] [%] | inhibition of growth at 30 µM [6] [%] | inhibition of growth at 10 µM [7] [%] | inhibition of growth at 30 µM [8] [%]
CC(=O)O[C@H]1CC[C@@]2(C)C(=CC[C@@H]3[C@@H]2CC[C@]2(C)C(c4nn(-c5ccc([N+](=O)[O-])cc5)cc4C=O)=CC[C@@H]32)C1 | < 20 | 51.9 | < 20 | 62.8 | < 20 | 22.7 | < 20 | 56.2
Cc1ccc(-n2cc(C=O)c(C3=CC[C@H]4[C@@H]5CC=C6C[C@@H](O)CC[C@]6(C)[C@H]5CC[C@]34C)n2)cc1 | 47.8 | 72.6 | 47.2 | 74.8 | 58.9 | 76.9 | 57.3 | 75.8
COc1ccc(-n2cc(C=O)c(C3=CC[C@H]4[C@@H]5CC=C6C[C@@H](OC(C)=O)CC[C@]6(C)[C@H]5CC[C@]34C)n2)cc1 | 43.8 | 77.7 | 33.9 | 69.1 | < 20 | 54.4 | 32.8 | 66.7
C[C@]12CC[C@H](O)CC1=CC[C@@H]1[C@@H]2CC[C@]2(C)C(c3nn(-c4ccc(Br)cc4)cc3C=O)=CC[C@@H]12 | 22.2 | 61 | 36.2 | 70.7 | < 20 | 55.8 | 48.1 | 60.4
COc1ccc(-n2cc(CO)c(C3=CC[C@H]4[C@@H]5CC=C6C[C@@H](O)CC[C@]6(C)[C@H]5CC[C@]34C)n2)cc1 | 51.8 | 75.5 | 62.2 | 79.6 | 69.3 | 92.9 | 64.7 | 86.7
C[C@]12CC[C@H](O)CC1=CC[C@@H]1[C@@H]2CC[C@]2(C)C(c3nn(-c4ccc(C#N)cc4)cc3C=O)=CC[C@@H]12 | 64.4 | 80.2 | 66.9 | 86.4 | 49.1 | 93.1 | 60.8 | 74.3
CC(=O)O[C@H]1CC[C@@]2(C)C(=CC[C@@H]3[C@@H]2CC[C@]2(C)C(c4nn(-c5ccccc5)cc4C=O)=CC[C@@H]32)C1 | 57.1 | 86.3 | 31.4 | 79.9 | 37.9 | 71.5 | 52.8 | 76.9
CC(=O)O[C@H]1CC[C@@]2(C)C(=CC[C@@H]3[C@@H]2CC[C@]2(C)C(c4nn(C)cc4C#N)=CC[C@@H]32)C1 | 41.8 | 50.3 | 21.7 | 60.4 | 30.5 | 34.9 | 30.8 | 53.1
CC(=O)O[C@H]1CC[C@@]2(C)C(=CC[C@@H]3[C@@H]2CC[C@]2(C)C(c4nn(-c5ccc(C)cc5)cc4C=O)=CC[C@@H]32)C1 | 24.6 | 44.4 | 37.2 | 50.8 | < 20 | 27.2 | < 20 | 34.9
Cn1cc(C=O)c(C2=CC[C@H]3[C@@H]4CC=C5C[C@@H](O)CC[C@]5(C)[C@H]4CC[C@]23C)n1 | 42.2 | 48.6 | 62 | 70.4 | 86.8 | 93.4 | 62.1 | 70
CC(=O)O[C@H]1CC[C@@]2(C)C(=CC[C@@H]3[C@@H]2CC[C@]2(C)C(c4n[nH]cc4C=O)=CC[C@@H]32)C1 | < 20 | 83.5 | < 20 | 63.3 | < 20 | < 20 | < 20 | 64.2
Cn1cc(CO)c(C2=CC[C@H]3[C@@H]4CC=C5C[C@@H](O)CC[C@]5(C)[C@H]4CC[C@]23C)n1 | < 20 | 33.8 | 37.4 | 56.4 | < 20 | 43.6 | 32.5 | 47.1
CC(=O)O[C@H]1CC[C@@]2(C)C(=CC[C@@H]3[C@@H]2CC[C@]2(C)C(c4nn(-c5ccc(Br)cc5)cc4C=O)=CC[C@@H]32)C1 | 41.2 | 60.6 | 51.4 | 63.6 | 21.7 | 51.9 | 33.8 | 55.1
CC(=O)O[C@H]1CC[C@@]2(C)C(=CC[C@@H]3[C@@H]2CC[C@]2(C)C(c4nn(-c5ccc(C#N)cc5)cc4C=O)=CC[C@@H]32)C1 | 62.2 | 85.3 | 60.4 | 83.6 | 43 | 84.5 | 58.9 | 80.4
C[C@]12CC[C@H](O)CC1=CC[C@@H]1[C@@H]2CC[C@]2(C)C(c3nn(-c4ccc(Cl)cc4)cc3C=O)=CC[C@@H]12 | 32.1 | 55.7 | 43.6 | 68.4 | < 20 | 41.1 | 48.4 | 60.5
CC(=O)O[C@H]1CC[C@@]2(C)C(=CC[C@@H]3[C@@H]2CC[C@]2(C)C(c4nn(C(C)=O)cc4C#N)=CC[C@@H]32)C1 | < 20 | 70 | < 20 | 63.9 | < 20 | 61.3 | < 20 | 64.6
CC(=O)O[C@H]1CC[C@@]2(C)C(=CC[C@@H]3[C@@H]2CC[C@]2(C)C(c4nn(C)cc4C=O)=CC[C@@H]32)C1 | 30.9 | 61.9 | < 20 | 65.2 | < 20 | 26.2 | < 20 | 55.6
